Laboratory results published in patent publication US20050137233A1, “Prodrugs of 1-methyl-2-(4-amidinophenylaminomethyl)-benzimidazol-5-yl-carboxylic acid-(N-2-pyridyl-N-2-hydroxycarbonylethyl)-amide” (Boehringer Ingelheim Pharma GmbH & Co. KG, priority 2002, published 2005).

Legend:
[1] = tested on: female rabbits; assay: local tolerance after subcutaneous administration, histological comparison of injection sites with placebo sites; format: in vivo
Source text: For example the compounds • A=1-methyl-2-[4-(N-hydroxyamidino)-phenylaminomethyl]-benzimidazol-5-yl-carboxylic acid-(N-2-pyridyl-N-2-ethoxycarbonylethyl)-amide and • B=1-methyl-2-[4-(N-methoxycarbonylamidino)-phenylaminomethyl]-benzimidazol-5-yl-carboxylic acid-(N-2-pyridyl-N-2-hydroxycarbonylethyl)-amide were investigated for their degree of tolerance when administered by subcutaneous route by comparison with active substance II:
Solutions of the test substances were each administered by subcutaneous route once a day on three successive days to two female rabbits (age: 11 to 14 weeks, weight: 2.0 to 3.5 kg). At the same time as the substances were administered a placebo solution was injected contralaterally into the same animal. The animals were killed 48 hours after the last administration and dissected. The injection sites for administering the test substances were compared histologically with the sites of the placebo injections.

[2] = conversion of the prodrugs into active substance II, plasma concentration by HPLC-MS/MS after subcutaneous administration; format: in vivo; settings: rabbits, after subcutaneous injection, active substance II measured in plasma, detection limit 4 ng/ml
Procedure: In order to investigate the conversion of the prodrugs A and B into the active substance II, 1.0 ml of blood were taken from the central auricular artery of each of the test animals with K-EDTA syringes at various times after subcutaneous administration. The blood was centrifuged and the plasma was acidified with the same volume of 0.2 M hydrochloric acid. These solutions were stored at −20° C. The concentrations of the active substance II were measured using an HPLC-MS/MS apparatus (Perkin Elmer Sciex API 300 LC-MS/MS system). The detection limit was 4 ng/ml.

## CCOC(=O)CCN(C(=O)c1ccc2c(c1)nc(CNc1ccc(/C(N)=N\O)cc1)n2C)c1ccccn1 [A, 1-methyl-2-[4-(N-hydroxyamidino)-phenylaminomethyl]-benzimidazol-5-yl-carboxylic acid-(N-2-pyridyl-N-2-ethoxycarbonylethyl)-amide]
[1]; rabbit, in vivo, sc
  degree of tolerance at the injection sites when administered by subcutaneous route: very well tolerated locally
[2]
  conversion of the prodrug into the active substance II: converted into the active substance II

## COC(=O)/N=C(/N)c1ccc(NCc2nc3cc(C(=O)N(CCC(=O)O)c4ccccn4)ccc3n2C)cc1 [B, 1-methyl-2-[4-(N-methoxycarbonylamidino)-phenylaminomethyl]-benzimidazol-5-yl-carboxylic acid-(N-2-pyridyl-N-2-hydroxycarbonylethyl)-amide]
[1]; female rabbits, subcutaneous once a day on three successive days, histology 48 hours after the last administration, versus contralateral placebo injection
  degree of tolerance at the injection sites when administered by subcutaneous route: very well tolerated locally
[2]
  conversion of the prodrug into the active substance II: converted into the active substance II

## Cn1c(CNc2ccc(C(=N)N)cc2)nc2cc(C(=O)N(CCC(=O)O)c3ccccn3)ccc21 [II, 1-methyl-2-(4-amidinophenylaminomethyl)-benzimidazol-5-yl-carboxylic acid-(N-2-pyridyl-N-2-hydroxycarbonylethyl)-amide]
[1]; rabbit, in vivo, sc
  degree of tolerance at the injection sites when administered by subcutaneous route: clear signs of inflammation at the injection sites
